Measured values reported in patent US20260148853A1, “UQCC2-BASED COMPUTER-ASSISTED METHOD, SYSTEM, AND DEVICE FOR DIAGNOSING OSIMERTINIB-RESISTANT LUNG CANCER, PREDICTING DRUG THERAPEUTIC EFFECTS, AND SCREENING DRUGS TARGETED FOR OSIMERTINIB-RESISTANT LUNG CANCER” (THE SECOND HOSPITAL OF DALIAN MEDICAL UNIVERSITY, priority 2024, published 2026).
d = 2'-deoxy (DNA)

Experiments:
Type in all cases: cell-based
[1] = test system: UQCC2; assay: western blot of UQCC2 protein expression in NCI-H1975/OR cells treated with Ctrl, Osim or Lomi; conditions: NCI-H1975/OR cells (osimertinib-resistant), lomitapide alone vs Osim and Ctrl, FIG. 9
Description: In a specific embodiment, the protein expression levels of UQCC2 in the NCI-H1975 cells and the NCI-H1975/OR cells (Ctrl) were determined by western blot assay, or the like. The NCI-H1975/OR cells (Ctrl) were osimertinib-resistant cells. The western blot assay used anti-UQCC2 (antibody dilution ratio of 1:1000, Proteintech, #25781-1-AP). Anti-GAPDH (antibody dilution ratio of 1:50,000, Proteintech, #60004-1-Ig) was used as a loading control. Significance (denoted as P) was determined using GraphPad Prism software, etc. All statistical analyses were performed using data from at least three independent experiments. […] “*” refers to a marker sign of significance.
In a specific embodiment, the protein expression of UQCC2 in the NCI-H1975/OR cells (treated with Ctrl, Osim, or Lomi alone) was determined by western blot assay. The western blot assay was performed using the following antibody: anti-UQCC2 (antibody dilution ratio of 1:1000, Proteintech, #25781-1-AP). Anti-GAPDH (antibody dilution ratio of 1:50,000, Proteintech, #60004-1-Ig) was used as a loading control. Significance was calculated using GraphPad Prism software, etc.

[2] = test system: UQCC2; assay: western blot of UQCC2 after siRNA knockdown of METTL3 in H1975/OR cells; conditions: FIG. 11B
Source text: (§1) In one embodiment, the correlation between METTL3 and UQCC2 expression was investigated by western blot assay after knockdown of the gene expression of METTL3 or UQCC2 in H1975/OR cells through small interfering RNA (siRNA), etc. The knockdown may be a partial reduction in the expression level of a specific gene.
(§2) siMETTL3 (5′-3′) (siRNA for METTL3 gene knockdown): sense strand GCACUUGGAUCUACGGAAU(dT)(dT); antisense strand AUUCCGUAGAUCC AAGUGC(dT)(dT); siUQCC2 (5′-3′) (siRNA for UQCC2 gene knockdown): sense strand: […], antisense strand: […].
(§3) In some embodiments, the western blot assay was performed using the following antibodies: anti-METTL 3 (antibody dilution ratio of 1:2000; #15073-1-AP; Proteintech) and anti-UQCC2 (antibody dilution ratio of 1:1000, Proteintech, #25781-1-AP). Anti-GAPDH (antibody dilution ratio 1:50,000, Proteintech, #60004-1-Ig) was used as a loading control. Significance was calculated using GraphPad Prism software, etc.

[3] = test system: autophagosome marker LC3; assay: immunofluorescence assay of LC3 after UQCC2 knockdown in H1975/OR cells; conditions: FIG. 12
Description: In one embodiment, the expression of the autophagosome marker LC3 was analyzed by the immunofluorescence assay after the UQCC2 knockdown in H1975/OR cells. siUQCC2 (5′-3′): sense strand: […]; antisense strand: […].
In some embodiments, the H 1975/OR cells may be fixed with 4% formaldehyde, permeabilized with 0.2% Triton X-100, and blocked with 5% bovine serum albumin. The cells were then incubated with the indicated antibodies at 4° C. overnight and stained with fluorescently coupled secondary antibodies and DAPI solution. The H1975/OR cells were photographed under a fluorescence microscope (Leica DM6B Thunder). Anti-LC3 (antibody dilution ratio of 1:100; antibody used was Proteintech, No. 81004-1-RR).

[4] = test system: autophagosome markers LC3 and p62; assay: western blot of autophagosome markers after UQCC2 knockdown in H1975/OR cells; conditions: FIG. 11
Description: In a specific embodiment, the impact of UQCC2 knockdown in H1975/OR cells on the expression of the autophagosome markers LC3 and p62 was investigated by western blot assay. siUQCC2 (5′-3′): sense strand: […]; antisense strand: […].
In some embodiments, the western blot assay was performed using the following antibodies: anti-UQCC 2 (antibody dilution ratio of 1:1000, Proteintech, #25781-1-AP), anti-LC3 (antibody dilution ratio of 1:2000; #81004-1-RR; Proteintech), and anti-p 62 (antibody dilution ratio of 1:5000; #80294-1-RR; Proteintech). Anti-GAPDH (Antibody dilution ratio 1:50,000, Proteintech, #60004-1-Ig) was used as a loading control. Significance was calculated using GraphPad Prism software, etc.

[5] = test system: METTL3; assay: western blot of METTL3 after siRNA knockdown of UQCC2 in H1975/OR cells; conditions: FIG. 11C
Source text: as §1, §2, §3

With `O=C(NC1CCN(CCCCC2(C(=O)NCC(F)(F)F)c3ccccc3-c3ccccc32)CC1)c1ccccc1-c1ccc(C(F)(F)F)cc1` [lomitapide] the “protein expression of UQCC2” value [1] was “significantly reduced”.

In the case of “siMETTL3: siRNA for METTL3 gene knockdown; sense strand GCACUUGGAUCUACGGAAU(dT)(dT) (antisense AUUCCGUAGAUCCAAGUGC; sense: 3' dTdT, sugars by position and backbone not given here; antisense: chemistry not given here)”, the “expression of UQCC2” value [2] is reported as “downregulates”.

For “siUQCC2: siRNA for UQCC2 gene knockdown; sense strand GACUCCAUUCAAACUACUATT, antisense strand UAGUAGUUUUGAAUGGAGUCTT (chemistry not fully specified)”, the autophagy [3] was “significantly activated”, the “expression of autophagosome marker LC3” value [3] was “up-regulation” and the autophagy [4] was “significantly activated”. The “expression of autophagosome marker LC3” value [4] was “upregulation”, the “expression of autophagosome marker p62” value [4] was “upregulation” and the “expression of METTL3” value [5] was “does not affect”.
